# Experimental data from patent publication US20100075935A1, “XANTHINE MODULATORS OF ADENOSINE A1 RECEPTOR” (Auspex Pharmaceuticals, Inc., priority 2008, published 2010).
# Assays:
# [1] = In vitro liver microsomal stability assay; type: in vitro ADME; conditions: human liver microsomes 0.5 mg/mL, 1 μM compound, 37° C., NADPH-generating system, compared with non isotopically enriched rolofylline, '+' marks one bin of −25%-0%, 0%-50%, 50%-150%
# Protocol: Liver microsomal stability assays were conducted at 0.5 mg per mL liver microsome protein with an NADPH-generating system in 2% NaHCO3 (2.2 mM NADPH, 25.6 mM glucose 6-phosphate, 6 units per mL glucose 6-phosphate dehydrogenase and 3.3 mM MgCl2). Test compounds were prepared as solutions in 20% acetonitrile-water and added to the assay mixture (final assay concentration 1 μM) and incubated at 37° C. Final concentration of acetonitrile in the assay should be <1%. […] were taken out at times 0, 7.5, 15, 22.5, 30 minutes, and diluted with ice cold acetonitrile (200 μL) to stop the reactions. Samples were centrifuged at 12,000 RPM for 10 min to precipitate proteins. Supernatants were transferred to micro centrifuge tubes and stored for LC/MS/MS analysis of the degradation half-life of the test compounds. […] The degradation half-lives of Examples 1 through 4 (isotopically enriched compounds) as compared with non isotopically enriched rolofylline are shown in Table 1.
# [2] = test system: acute heart failure patients; conditions: cited from earlier work
# [3] = rolofylline 30 mg daily for 3 days
smiles,measurement,setting,value
"[2H]C([2H])([2H])C([2H])([2H])C([2H])([2H])n1c(=O)n(CCC)c(=O)c2[nH]c(C34CC5CC(CC3C5)C4)nc21 [Example 1, 8-(Noradamantyl)-1-propyl-3-(d7-propyl)-3,7-dihydro-purine-2,6-dione]",% increase of HLM degradation half-life,[1],+ (−25%-0%)
"[2H]C([2H])([2H])C([2H])([2H])C([2H])([2H])n1c(=O)c2[nH]c(C34CC5CC(CC3C5)C4)nc2n(C([2H])([2H])C([2H])([2H])C([2H])([2H])[2H])c1=O [Example 2, 8-(Noradamantyl)-1-(d7-propyl)-3-(d7-propyl)-3,7-dihydro-purine-2,6-dione]",% increase of HLM degradation half-life,[1],+ (−25%-0%)
"[2H]C([2H])(CC)n1c(=O)c2[nH]c(C34CC5CC(CC3C5)C4)nc2n(CCC)c1=O [Example 3, 8-(Noradamantyl)-1-(1,1-d2-propyl)-3-propyl-3,7-dihydro-purine-2,6-dione]",% increase of HLM degradation half-life,[1],+ (−25%-0%)
"[2H]C([2H])([2H])C([2H])([2H])C([2H])([2H])n1c(=O)c2[nH]c(C34CC5CC(CC3C5)C4)nc2n(CCC)c1=O [Example 4, 8-(Noradamantyl)-1-(d7-propyl)-3-propyl-3,7-dihydro-purine-2,6-dione]",% increase of HLM degradation half-life,[1],+ (−25%-0%)
"CCCn1c(=O)c2[nH]c(C34CC5CC(CC3C5)C4)nc2n(CCC)c1=O [Rolofylline, 8-(hexahydro-2,5-methano-pentalen-3a-yl)-1,3-dipropyl-3,7-dihydro-purine-2,6-dione]",urine output at 6 hours,"[2]; acute heart failure patients, 6 hours",increased urine output at 6 hours
same,overall urine output over 24 hours,"[2]; acute heart failure patients, 24 hours",did not increase overall urine output over 24 hours
same,patients with persistent renal impairment,"[2]; rolofylline 30 mg daily for 3 days, acute heart failure patients",8%
same,dyspnea improvement versus placebo,[2]; [3],superior to placebo
same,"instances of death, heart failure readmission, worsening heart failure or persistent renal impairment versus placebo",[2]; [3],less instances
